Test results as given in PubChem BioAssay (NCI).
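Test compounds were applied to cells in 96-well plates for 48 hours at 5 doses. TGI: total growth inhibition.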

Key:
Experiment in all cases: NCI-60 cell line screen, 48 h
HCT-116 colon = test system: HCT-116 colon
HL-60(TB) leukemia = test system: HL-60(TB) leukemia
LOX IMVI melanoma = test system: LOX IMVI melanoma
M14 melanoma = test system: M14 melanoma
MCF7 breast = test system: MCF7 breast
MDA-MB-231 breast = test system: MDA-MB-231 breast
NCI-H226 lung = test system: NCI-H226 lung
NCI-H460 lung = test system: NCI-H460 lung
RPMI-8226 leukemia = test system: RPMI-8226 leukemia
SNB-19 CNS = test system: SNB-19 CNS

Structure (SMILES)	TGI (HCT-116 colon) [µM]	TGI (HL-60(TB) leukemia) [µM]	TGI (LOX IMVI melanoma) [µM]	TGI (M14 melanoma) [µM]	TGI (MCF7 breast) [µM]	TGI (MDA-MB-231 breast) [µM]	TGI (NCI-H226 lung) [µM]	TGI (NCI-H460 lung) [µM]	TGI (RPMI-8226 leukemia) [µM]	TGI (SNB-19 CNS) [µM]
Clc1ccc(OCc2nnc(COc3ccc(OCc4nnc(COc5ccc(Cl)cc5Cl)o4)c(Cl)c3)o2)c(Cl)c1	> 100	57.3	33.4	> 100	> 100	63.1	> 100	> 100	39.6	> 100
NCCCCNCCCNC(=O)CNC(=O)CC(O)C(N)CCCC(NC(=O)C(CN)NC(=O)C(O)CNC(=O)CC(N)c1ccc(O)cc1)C(=O)O (stereo not given)	> 10	> 10	> 10	> 10	> 10	> 10	> 10	> 10	> 10	> 10
Cc1cc(OCc2nnc3sc(NC(=O)c4ccccc4)nn23)ccc1Cl	> 100	> 100	78.7	> 100	> 100	> 100	> 100	> 100	69.2	> 100
O=C1CS/C(=N/N=C/c2cn(Cc3ccc(Cl)cc3Cl)c3ccccc23)N1	> 100	> 100	> 100	> 100	61.6	48	> 100	> 100	> 100	> 100
C[n+]1c(-c2ccc(NC(=O)c3ccc(C(=O)Nc4ccc(-c5cn6ccccc6[n+]5C)cc4)cc3)cc2)cn2ccccc21	> 100	> 100	> 100	> 100	> 100	> 100	> 100	> 100	> 100	> 100
CCOc1snc(C(Cl)(Cl)Cl)c1Cl	89.2	37.7	42.8	> 100	78.9	> 100	32.5	> 100	59.1	74.9
Cc1nc(SCC(N)=O)c2sc(=S)n(-c3ccccc3)c2n1	> 10	> 10	> 10	> 10	> 10	> 10	> 10	> 10	> 10	> 10
N#Cc1ccc(-c2nc(C#N)c(N)o2)cc1	> 10	> 10	> 10	> 10	> 10	> 10	> 10	> 10	> 10	> 10
O=C(Sc1c(-c2ccccc2)c(=O)n(-c2ccccc2)c(=S)n1-c1ccccc1)c1ccco1	> 100	59.2	> 100	> 100	> 100	> 100	> 100	> 100	> 83.7	> 100
CCOC(=O)/C=C(/C=C\COC1CCCCO1)c1ccccc1 (stereo not given)	29.5	44.2	30.9	> 100	> 100	> 100	> 100	> 100	> 100	> 100
CC1(C)N=C(N)N=C(N)N1c1cccc(OCc2cccc(N)c2)c1	> 100	47.5	> 100	> 100	> 100	> 100	> 100	> 100	> 100	> 100
Clc1cc(C(c2cc(Cl)sc2Cl)c2cc(Cl)sc2Cl)c(Cl)s1	> 100	> 100	> 100	> 100	> 100	> 100	> 100	> 100	> 100	> 100
CC(=O)OCC(=O)O[C@@H]1[C@H]2[C@@H](OC(=O)c3ccccc3)[C@@H](C)C[C@]2(O)[C@H](OC(C)=O)[C@@]2(C)C[C@]1(OC(C)=O)C[C@H]1C(=O)C(C)(C)[C@@H](OC(C)=O)[C@@H]12	> 25	> 25	> 25	> 25	> 25	> 25	> 25	> 25	> 25	> 25
CC(C)=CCC12Cc3ccc(O)cc3C(C(C)CN1)C2C (stereo not given)	> 100	> 100	> 100	51.5	> 100	> 100	> 100	> 100	> 100	> 100
N#Cc1nc(C2CCC(=O)O2)oc1N (stereo not given)	> 100	> 100	> 100	> 100	> 100	> 100	> 100	> 100	> 100	> 100
O=C1c2cccnc2S(=O)(=O)N1c1ccc([N+](=O)[O-])cc1	> 100	> 100	> 100	> 100	> 100	> 100	> 100	> 100	> 100	> 100
C=C1CC(COc2ccc3c(C)c(C)c(=O)oc3c2C)(c2ccccc2)OC1=O (stereo not given)	2.77	5.54	2.85	4.23	3.56	7.86	6.73	18	0.764	27.1
